Structures are written as SMILES. Activity calls are given as the source filed them. The rule behind the calls is not given here.

From ChEMBL document CHEMBL3046368, “Synthesis of benzothiazole derivatives and their biological evaluation as anticancer agents” (2012) come the findings set out here.

One experiment relates to CCRF-CEM. As to the kind of experiment: Cytotoxicity against Homo sapiens (human) CCRF-CEM cells after 48 hr by SRB assay. The class given is functional. (In general: Sulforhodamine B stains cellular protein and so reports cell mass.)
Another experiment relates to 786-0. As to the kind of experiment: Cytotoxicity against Homo sapiens (human) 786-0 cells after 48 hr by SRB assay. In kind it is functional. To be noted: 786-0, 48 h.
The test system of a further experiment is COLO 205. As to the kind of experiment: Cytotoxicity against Homo sapiens (human) COLO205 cells after 48 hr by SRB assay. The class given is functional. The settings on record: COLO 205, 48 h.
Another experiment concerns SK-MEL-5. In words: Cytotoxicity against Homo sapiens (human) SK-MEL-5 cells after 48 hr by SRB assay. The class given is functional. The settings on record: SK-MEL-5, 48 h.
The subject of the next experiment is OVCAR-8. In words: Cytotoxicity against Homo sapiens (human) OVCAR8 cells after 48 hr by SRB assay. In kind it is functional. To be noted: OVCAR-8, 48 h.
For the next experiment, the system named is NCI-H226. As to the kind of experiment: Cytotoxicity against Homo sapiens (human) NCI-H226 cells after 48 hr by SRB assay. The settings on record: NCI-H226, 48 h. The class given is functional.
The subject of another experiment is OVCAR-4. In words: Cytotoxicity against Homo sapiens (human) OVCAR4 cells after 48 hr by SRB assay. To be noted: OVCAR-4, 48 h. The class given is functional.
The subject of another experiment is BT-549. As to the kind of experiment: Cytotoxicity against Homo sapiens (human) BT549 cells after 48 hr by SRB assay. The settings on record: BT-549, 48 h. In kind it is functional.
For the next experiment, the system named is SF-539. In words: Cytotoxicity against Homo sapiens (human) SF539 cells after 48 hr by SRB assay. The class given is functional. The settings on record: SF-539, 48 h.
The subject of a further experiment is TK-10. In words: Cytotoxicity against Homo sapiens (human) TK10 cells after 48 hr by SRB assay. In kind it is functional. The settings on record: TK-10, 48 h.
In another experiment the test system is SN12C. In words: Cytotoxicity against Homo sapiens (human) SN12C cells after 48 hr by SRB assay. In kind it is functional.
Another experiment relates to OVCAR-5. As to the kind of experiment: Cytotoxicity against Homo sapiens (human) OVCAR5 cells after 48 hr by SRB assay. The class given is functional. To be noted: OVCAR-5, 48 h.
In the next experiment the test system is MDA-MB-468. As to the kind of experiment: Cytotoxicity against Homo sapiens (human) MDA-MB-468 cells after 48 hr by SRB assay. In kind it is functional. The settings on record: MDA-MB-468, 48 h.
The test system of a further experiment is HCT-116. As to the kind of experiment: Cytotoxicity against Homo sapiens (human) HCT116 cells after 48 hr by SRB assay. In kind it is functional. The settings on record: HCT-116, 48 h.
For another experiment, the system named is HOP-62. As to the kind of experiment: Cytotoxicity against Homo sapiens (human) HOP62 cells after 48 hr by SRB assay. In kind it is functional. The settings on record: HOP-62, 48 h.
The test system of a further experiment is HCT-15. In words: Cytotoxicity against Homo sapiens (human) HCT15 cells after 48 hr by SRB assay. In kind it is functional. To be noted: HCT-15, 48 h.
Experiment [1] addresses T1, Ubiquitin-like modifier-activating enzyme 1 (Homo sapiens) (UniProt P22314).
T1 sequence (whole entry): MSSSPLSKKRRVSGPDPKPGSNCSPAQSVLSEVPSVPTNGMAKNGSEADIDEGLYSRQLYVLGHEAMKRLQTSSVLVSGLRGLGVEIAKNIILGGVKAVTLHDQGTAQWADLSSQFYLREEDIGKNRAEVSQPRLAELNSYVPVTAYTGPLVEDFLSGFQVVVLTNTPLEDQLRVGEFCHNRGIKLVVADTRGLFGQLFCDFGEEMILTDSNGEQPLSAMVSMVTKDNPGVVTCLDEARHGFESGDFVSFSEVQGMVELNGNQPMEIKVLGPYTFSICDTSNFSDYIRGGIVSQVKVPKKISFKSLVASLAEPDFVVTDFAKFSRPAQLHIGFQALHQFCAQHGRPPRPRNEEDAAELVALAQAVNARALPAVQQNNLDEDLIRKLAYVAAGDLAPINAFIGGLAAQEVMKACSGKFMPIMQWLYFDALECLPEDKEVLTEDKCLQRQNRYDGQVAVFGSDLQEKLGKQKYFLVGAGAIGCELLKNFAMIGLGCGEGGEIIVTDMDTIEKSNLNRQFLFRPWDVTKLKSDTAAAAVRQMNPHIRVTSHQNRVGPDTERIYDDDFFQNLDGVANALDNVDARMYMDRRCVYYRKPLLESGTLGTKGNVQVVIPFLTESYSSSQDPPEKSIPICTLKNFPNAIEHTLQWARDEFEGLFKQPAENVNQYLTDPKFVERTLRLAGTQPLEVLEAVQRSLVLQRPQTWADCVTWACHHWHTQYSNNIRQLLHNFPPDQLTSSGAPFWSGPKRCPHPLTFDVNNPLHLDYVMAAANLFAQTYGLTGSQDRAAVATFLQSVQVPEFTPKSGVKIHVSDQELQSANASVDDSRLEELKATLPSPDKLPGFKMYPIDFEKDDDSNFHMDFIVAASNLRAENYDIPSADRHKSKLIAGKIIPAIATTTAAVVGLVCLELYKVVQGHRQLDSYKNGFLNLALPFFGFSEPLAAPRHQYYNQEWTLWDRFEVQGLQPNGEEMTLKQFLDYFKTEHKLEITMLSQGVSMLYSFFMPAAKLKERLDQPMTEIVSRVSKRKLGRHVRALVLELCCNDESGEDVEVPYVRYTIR
As to the kind of experiment: Inhibition of ubiquitin displacement on His6-tagged E2 enzyme from His6-tagged UBA1 (unknown origin) at 10 uM after 1.5 hr by SDS-PAGE analysis.

The next experiment has as its system Malme-3M. As to the kind of experiment: Cytotoxicity against Homo sapiens (human) MALME-3M cells after 48 hr by SRB assay. In kind it is functional.
The test system of the next experiment is HT-29. In words: Cytotoxicity against Homo sapiens (human) HT-29 cells after 48 hr by SRB assay. The class given is functional. The settings on record: HT-29, 48 h.
Experiment [2] can be described thus: Cytotoxicity against Homo sapiens (human) colon cancer cells assessed as cell growth at 10^-5 M after 48 hr by SRB assay relative to control. In kind it is functional. To be noted: Cancer cell lines, read-out: Activity.
The next experiment has as its system EKVX. In words: Cytotoxicity against Homo sapiens (human) EKVX cells after 48 hr by SRB assay. The class given is functional.
A further experiment deals with SNB-19. As to the kind of experiment: Cytotoxicity against Homo sapiens (human) SNB19 cells after 48 hr by SRB assay. The settings on record: SNB-19, 48 h. In kind it is functional.
A short description of experiment [3]: Cytotoxicity against Homo sapiens (human) prostate cancer cells assessed as cell growth at 10^-5 M after 48 hr by SRB assay relative to control. In kind it is functional. The settings on record: Cancer cell lines, read-out: Activity.
Another experiment deals with HCC 2998. In words: Cytotoxicity against Homo sapiens (human) HCC2998 cells after 48 hr by SRB assay. The class given is functional. To be noted: HCC 2998, 48 h.

Consider `N#Cc1ccc(NC(=O)Nc2nc3ccc(OC(F)(F)F)cc3s2)cc1`, for which the 50% growth inhibitory concentration (GI50) (usually the concentration that inhibits growth by half) was 1.51 µM with CCRF-CEM; 2 µM in the experiment with 786-0; 1.7 µM in the experiment with COLO 205; 1.15 µM in the experiment on SK-MEL-5; 2 µM in the experiment on OVCAR-8; 2 µM with NCI-H226. Further, the GI50 in the experiment on OVCAR-4 is 1.62 µM; in the experiment with BT-549 it was 2.75 µM; with SF-539, 2.88 µM; in the experiment on TK-10 it was 1.23 µM; in the experiment on SN12C, 1.58 µM; in the experiment with OVCAR-5, 4.27 µM. The 50% growth inhibitory concentration (GI50) is 0.457 µM in the experiment with MDA-MB-468; 0.55 µM in the experiment on HCT-116; 2.51 µM in the experiment with HOP-62; 1.38 µM in the experiment with HCT-15; 0.851 µM in the experiment on Malme-3M; 2.09 µM in the experiment with HT-29. In addition, the figures for the GI50 in the experiment on EKVX, in the experiment on SNB-19 and with HCC 2998 were 1.35 µM, 1.51 µM and 1.29 µM, respectively. The inhibition entry in [1] is “inactive”. Further, the growth at 10 µM in experiment [2] was -11.2%; in [3] it was 13%.
With `O=C(Nc1ccc(F)cc1)Nc1nc2ccc(OC(F)(F)F)cc2s1`, the GI50 with CCRF-CEM was 3.98 µM; with 786-0 it was 3.47 µM; in the experiment with COLO 205, 2.09 µM; in the experiment on SK-MEL-5, 2.45 µM; in the experiment with OVCAR-8, 4.27 µM; in the experiment with NCI-H226, 2.82 µM. In addition, the GI50 is 2.95 µM with OVCAR-4; 3.8 µM in the experiment on BT-549; 2.24 µM in the experiment on SF-539; 4.07 µM in the experiment with TK-10; 2.57 µM in the experiment on SN12C; 3.63 µM in the experiment with OVCAR-5. Also, the GI50 was 2.34 µM in the experiment on MDA-MB-468; 2.95 µM in the experiment with HCT-116; 3.8 µM in the experiment on HOP-62; 3.02 µM in the experiment with HCT-15; 2.95 µM in the experiment with Malme-3M; 3.89 µM in the experiment on HT-29. The 50% growth inhibitory concentration (GI50) was 2.63 µM in the experiment on EKVX, 3.72 µM in the experiment on SNB-19 and 3.89 µM in the experiment with HCC 2998. The inhibition result in [1] is “inactive”. For the same compound, the growth at 10 µM in experiment [2] is 0.24%; in experiment [3], 12.4%.
